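Briefly, cells in 96-well plates were exposed to five compound concentrations for 48 h, and endpoints were estimated by linear interpolation. GI50 = concentration required for 50% inhibition of growth. Definition used: TGI = concentration required for complete inhibition of growth.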
Columns and labels:
Experiment in all cases: NCI tumour cell line growth inhibition, 48 h
786-0 renal = system: 786-0 renal
A498 renal = system: A498 renal
A549 NSCLC = system: A549 NSCLC
ACHN renal = system: ACHN renal
BT-549 breast = system: BT-549 breast
CAKI-1 renal = system: CAKI-1 renal
CCRF-CEM leukemia = system: CCRF-CEM leukemia
COLO 205 colon = system: COLO 205 colon
DU-145 prostate = system: DU-145 prostate
EKVX NSCLC = system: EKVX NSCLC
HCC-2998 colon = system: HCC-2998 colon
HCT-116 colon = system: HCT-116 colon
HCT-15 colon = system: HCT-15 colon
HL-60(TB) leukemia = system: HL-60(TB) leukemia
HOP-62 NSCLC = system: HOP-62 NSCLC
HOP-92 NSCLC = system: HOP-92 NSCLC
HS 578T breast = system: HS 578T breast
IGROV1 ovarian = system: IGROV1 ovarian
K-562 leukemia = system: K-562 leukemia
KM12 colon = system: KM12 colon
LOX IMVI melanoma = system: LOX IMVI melanoma
M14 melanoma = system: M14 melanoma
MALME-3M melanoma = system: MALME-3M melanoma
MCF7 breast = system: MCF7 breast
MDA-MB-231 breast = system: MDA-MB-231 breast
MDA-MB-435 = system: MDA-MB-435
MDA-MB-468 breast = system: MDA-MB-468 breast
MOLT-4 leukemia = system: MOLT-4 leukemia
NCI-H226 lung = system: NCI-H226 lung
NCI-H23 lung = system: NCI-H23 lung
NCI-H460 lung = system: NCI-H460 lung
NCI-H522 lung = system: NCI-H522 lung
NCI/ADR-RES ovarian = system: NCI/ADR-RES ovarian
OVCAR-3 ovarian = system: OVCAR-3 ovarian
OVCAR-4 ovarian = system: OVCAR-4 ovarian
OVCAR-5 ovarian = system: OVCAR-5 ovarian
OVCAR-8 ovarian = system: OVCAR-8 ovarian
PC-3 prostate = system: PC-3 prostate
RPMI-8226 leukemia = system: RPMI-8226 leukemia
RXF 393 renal = system: RXF 393 renal
SF-268 CNS = system: SF-268 CNS
SF-295 CNS = system: SF-295 CNS
SF-539 CNS = system: SF-539 CNS
SK-MEL-2 melanoma = system: SK-MEL-2 melanoma
SK-MEL-28 melanoma = system: SK-MEL-28 melanoma
SK-MEL-5 melanoma = system: SK-MEL-5 melanoma
SK-OV-3 ovarian = system: SK-OV-3 ovarian
SN12C renal = system: SN12C renal
SNB-19 CNS = system: SNB-19 CNS
SNB-75 CNS = system: SNB-75 CNS
SW-620 colon = system: SW-620 colon
T-47D breast = system: T-47D breast
TK-10 renal = system: TK-10 renal
U251 CNS = system: U251 CNS
UACC-257 melanoma = system: UACC-257 melanoma
UACC-62 melanoma = system: UACC-62 melanoma
UO-31 renal = system: UO-31 renal

Compound `Cc1occc1C(=O)NN1C(=O)/C(=C/C=C/c2ccc([N+](=O)[O-])o2)SC1=S` has a GI50 (786-0 renal) of 2.01 µM, a TGI (786-0 renal) of 4.19 µM and a GI50 (A498 renal) of 19.4 µM. For the same compound, the TGI (A498 renal) was 33.6 µM, the GI50 (A549 NSCLC) was 4.82 µM and the TGI (A549 NSCLC) was 21.1 µM. The GI50 (ACHN renal) was 1.73 µM, the TGI (ACHN renal) was 3.23 µM and the GI50 (BT-549 breast) was 1.77 µM. It also gave a TGI (BT-549 breast) of 3.29 µM, a GI50 (CAKI-1 renal) of 1.82 µM and a TGI (CAKI-1 renal) of 4.01 µM. It also gave a GI50 (CCRF-CEM leukemia) of 1.41 µM, a TGI (CCRF-CEM leukemia) of 8.47 µM and a GI50 (COLO 205 colon) of 1.62 µM. It also gave a TGI (COLO 205 colon) of 3.23 µM, a GI50 (DU-145 prostate) of 3.11 µM and a TGI (DU-145 prostate) of 10.1 µM. For the same compound, the GI50 (EKVX NSCLC) was 1.83 µM, the TGI (EKVX NSCLC) was 4 µM and the GI50 (HCC-2998 colon) was 1.89 µM. For the same compound, the TGI (HCC-2998 colon) was 3.69 µM, the GI50 (HCT-116 colon) was 1.06 µM and the TGI (HCT-116 colon) was 2.54 µM. For the same compound, the GI50 (HCT-15 colon) was 0.645 µM, the TGI (HCT-15 colon) was 2.24 µM and the GI50 (HL-60(TB) leukemia) was 2.64 µM. The TGI (HL-60(TB) leukemia) was 11.6 µM, the GI50 (HOP-62 NSCLC) was 3.37 µM and the TGI (HOP-62 NSCLC) was 11.7 µM. It also gave a GI50 (HOP-92 NSCLC) of 2.56 µM, a TGI (HOP-92 NSCLC) of 5.59 µM and a GI50 (HS 578T breast) of 2.44 µM. For the same compound, the TGI (HS 578T breast) was 7.46 µM, the GI50 (IGROV1 ovarian) was 1.85 µM and the TGI (IGROV1 ovarian) was 3.56 µM. It also gave a GI50 (K-562 leukemia) of 0.586 µM, a TGI (K-562 leukemia) of 7.28 µM and a GI50 (KM12 colon) of 2.22 µM. The TGI (KM12 colon) was 6.21 µM, the GI50 (LOX IMVI melanoma) was 1.26 µM and the TGI (LOX IMVI melanoma) was 2.55 µM. The GI50 (M14 melanoma) was 1.51 µM, the TGI (M14 melanoma) was 2.93 µM and the GI50 (MALME-3M melanoma) was 1.5 µM. For the same compound, the TGI (MALME-3M melanoma) was 3.23 µM, the GI50 (MCF7 breast) was 1.5 µM and the TGI (MCF7 breast) was 5 µM. It also gave a GI50 (MDA-MB-231 breast) of 1.51 µM, a TGI (MDA-MB-231 breast) of 2.97 µM and a GI50 (MDA-MB-435) of 1.93 µM. It also gave a TGI (MDA-MB-435) of 4.26 µM, a GI50 (MDA-MB-468 breast) of 1.62 µM and a TGI (MDA-MB-468 breast) of 3.27 µM. It also gave a GI50 (MOLT-4 leukemia) of 2.13 µM, a TGI (MOLT-4 leukemia) of 8.32 µM and a GI50 (NCI-H226 lung) of 2.02 µM. It also gave a TGI (NCI-H226 lung) of 5.09 µM, a GI50 (NCI-H23 lung) of 1.78 µM and a TGI (NCI-H23 lung) of 3.6 µM. For the same compound, the GI50 (NCI-H460 lung) was 1.79 µM, the TGI (NCI-H460 lung) was 3.66 µM and the GI50 (NCI-H522 lung) was 1.65 µM. It also gave a TGI (NCI-H522 lung) of 3.21 µM, a GI50 (NCI/ADR-RES ovarian) of 2.55 µM and a TGI (NCI/ADR-RES ovarian) of 7.46 µM. It also gave a GI50 (OVCAR-3 ovarian) of 1.59 µM, a TGI (OVCAR-3 ovarian) of 3.07 µM and a GI50 (OVCAR-4 ovarian) of 2.76 µM. For the same compound, the TGI (OVCAR-4 ovarian) was 10.1 µM, the GI50 (OVCAR-5 ovarian) was 1.86 µM and the TGI (OVCAR-5 ovarian) was 3.68 µM. For the same compound, the GI50 (OVCAR-8 ovarian) was 2.5 µM, the TGI (OVCAR-8 ovarian) was 10.9 µM and the GI50 (PC-3 prostate) was 2.79 µM. It also gave a TGI (PC-3 prostate) of 10.2 µM, a GI50 (RPMI-8226 leukemia) of 1.67 µM and a TGI (RPMI-8226 leukemia) of 7.51 µM. The GI50 (RXF 393 renal) was 1.71 µM, the TGI (RXF 393 renal) was 3.2 µM and the GI50 (SF-268 CNS) was 2.49 µM. For the same compound, the TGI (SF-268 CNS) was 6.95 µM, the GI50 (SF-295 CNS) was 6.19 µM and the TGI (SF-295 CNS) was 18.8 µM. The GI50 (SF-539 CNS) was 1.72 µM, the TGI (SF-539 CNS) was 3.3 µM and the GI50 (SK-MEL-2 melanoma) was 1.73 µM. The TGI (SK-MEL-2 melanoma) was 3.56 µM, the GI50 (SK-MEL-28 melanoma) was 1.85 µM and the TGI (SK-MEL-28 melanoma) was 3.63 µM. It also gave a GI50 (SK-MEL-5 melanoma) of 1.64 µM, a TGI (SK-MEL-5 melanoma) of 3.13 µM and a GI50 (SK-OV-3 ovarian) of 5.82 µM. For the same compound, the TGI (SK-OV-3 ovarian) was 18.7 µM, the GI50 (SN12C renal) was 1.65 µM and the TGI (SN12C renal) was 3.96 µM. It also gave a GI50 (SNB-19 CNS) of 5.47 µM, a TGI (SNB-19 CNS) of 18 µM and a GI50 (SNB-75 CNS) of 1.66 µM. For the same compound, the TGI (SNB-75 CNS) was 7.48 µM, the GI50 (SW-620 colon) was 1.11 µM and the TGI (SW-620 colon) was 2.65 µM. For the same compound, the GI50 (T-47D breast) was 2.17 µM, the TGI (T-47D breast) was 5.57 µM and the GI50 (TK-10 renal) was 3.47 µM. It also gave a TGI (TK-10 renal) of 9.99 µM, a GI50 (U251 CNS) of 1.89 µM and a TGI (U251 CNS) of 4.62 µM. For the same compound, the GI50 (UACC-257 melanoma) was 2.05 µM, the TGI (UACC-257 melanoma) was 5.1 µM and the GI50 (UACC-62 melanoma) was 1.36 µM. For the same compound, the TGI (UACC-62 melanoma) was 2.77 µM, the GI50 (UO-31 renal) was 1.51 µM and the TGI (UO-31 renal) was 2.96 µM.
